Source: patent US20260325533A1, “CDK INHIBITOR COMPOUNDS” (ALEKSIA THERAPEUTICS, INC., priority 2023, published 2026)
pIC50: −log10 of the molar value. Read-outs that look alike come from different tables or passages of the source. Each block holds one compound with its values, some of them ahead of it.

Tests used:
Type in all cases: biochemical
[1] = target: CDK2/CCNE1 (Homo sapiens, UniProt P24941); assay: CDK2 homogeneous time-resolved fluorescence (HTRF) kinase assay; conditions: CDK2/CCNE
How it was run: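 TR-FRET read-out (665 nm, or 665/615 ratio) of Eu-antibody detection of phospho-4E-BP1 (Thr37/46) ULight peptide. Enzyme 3 nM, ATP 1 mM, peptide 50 nM, 1% DMSO; 60 min reaction at 23 °C after 20 min compound preincubation. IC50 from 11-point half-log titrations, top typically 10 μM.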

[2] = target: CDK1/CCNB1 (Homo sapiens, UniProt P06493); assay: CDK1 homogeneous time-resolved fluorescence (HTRF) kinase assay; conditions: CDK1/CCNB
Chain of CDK1/CCNB1 (P06493 whole entry): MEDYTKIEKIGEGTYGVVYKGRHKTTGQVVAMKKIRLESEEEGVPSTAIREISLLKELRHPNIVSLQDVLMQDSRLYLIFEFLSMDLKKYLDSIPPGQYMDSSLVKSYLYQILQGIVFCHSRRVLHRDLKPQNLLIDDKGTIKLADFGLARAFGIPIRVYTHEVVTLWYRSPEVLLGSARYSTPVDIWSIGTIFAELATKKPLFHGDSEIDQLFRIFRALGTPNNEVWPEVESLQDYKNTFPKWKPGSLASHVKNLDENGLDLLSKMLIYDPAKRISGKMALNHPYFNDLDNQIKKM
Chain of CDK1/CCNB1 (P14635 whole entry partner): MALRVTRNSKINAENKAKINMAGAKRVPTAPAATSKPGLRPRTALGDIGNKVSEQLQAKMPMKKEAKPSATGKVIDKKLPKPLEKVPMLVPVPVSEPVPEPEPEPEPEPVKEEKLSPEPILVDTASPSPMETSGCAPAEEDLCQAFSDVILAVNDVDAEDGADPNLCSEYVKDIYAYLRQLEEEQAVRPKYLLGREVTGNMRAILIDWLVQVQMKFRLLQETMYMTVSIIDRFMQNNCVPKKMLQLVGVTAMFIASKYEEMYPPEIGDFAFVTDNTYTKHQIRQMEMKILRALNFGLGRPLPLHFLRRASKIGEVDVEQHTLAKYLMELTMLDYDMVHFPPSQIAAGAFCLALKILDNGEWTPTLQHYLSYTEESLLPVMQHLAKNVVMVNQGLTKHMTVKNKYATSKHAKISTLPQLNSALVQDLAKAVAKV
How it was run: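 HTRF assay with 0.5 nM CDK1/CCNB1, 1 mM ATP, 50 nM ULight-eIF4E-BP1 (Thr37/46) peptide; compound preincubated 20 min, reaction 60 min at 23 °C, EDTA stop, Eu-anti-phospho antibody detection. 11-point half-log titration from 10 μM, 1% DMSO; IC50 from 665 nm or 665/615 signal.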

[3] = target: CDK4/CCND3 (Homo sapiens, UniProt P11802); assay: CDK4 homogeneous time-resolved fluorescence (HTRF) kinase assay; conditions: CDK4/CCND
Chain of CDK4/CCND3 (P11802 whole entry): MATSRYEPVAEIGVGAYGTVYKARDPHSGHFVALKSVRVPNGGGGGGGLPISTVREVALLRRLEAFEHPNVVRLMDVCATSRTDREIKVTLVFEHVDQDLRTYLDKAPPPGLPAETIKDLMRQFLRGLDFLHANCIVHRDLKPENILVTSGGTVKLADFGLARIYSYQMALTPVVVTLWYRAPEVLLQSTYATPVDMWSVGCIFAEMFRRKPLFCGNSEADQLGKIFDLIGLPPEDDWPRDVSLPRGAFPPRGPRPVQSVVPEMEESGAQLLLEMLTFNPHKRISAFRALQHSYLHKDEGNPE
Chain of CDK4/CCND3 (P30281 whole entry partner): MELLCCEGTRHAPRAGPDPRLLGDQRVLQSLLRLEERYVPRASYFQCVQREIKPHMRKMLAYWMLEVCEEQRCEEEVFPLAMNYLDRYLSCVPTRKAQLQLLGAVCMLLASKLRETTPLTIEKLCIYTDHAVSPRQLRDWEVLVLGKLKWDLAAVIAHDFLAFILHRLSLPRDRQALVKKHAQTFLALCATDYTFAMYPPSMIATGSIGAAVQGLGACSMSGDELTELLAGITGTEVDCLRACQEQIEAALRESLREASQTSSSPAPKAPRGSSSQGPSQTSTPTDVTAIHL
How it was run: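 TR-FRET read (665 nm, or 665/615 ratio) of 4E-BP1 Thr37/46 phosphorylation by 1.5 nM CDK4/CCND3 at 1 mM ATP, 50 nM ULight peptide, 1% DMSO. Reaction ran 60 min at 23 °C after 20 min compound–enzyme preincubation. IC50 from 11-point half-log dilutions, top 10 μM.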

[4] = target: CDK6/CCND1 (Homo sapiens, UniProt Q00534); assay: CDK6 homogeneous time-resolved fluorescence (HTRF) kinase assay; conditions: CDK6/CCND
Chain of CDK6/CCND1 (Q00534 whole entry): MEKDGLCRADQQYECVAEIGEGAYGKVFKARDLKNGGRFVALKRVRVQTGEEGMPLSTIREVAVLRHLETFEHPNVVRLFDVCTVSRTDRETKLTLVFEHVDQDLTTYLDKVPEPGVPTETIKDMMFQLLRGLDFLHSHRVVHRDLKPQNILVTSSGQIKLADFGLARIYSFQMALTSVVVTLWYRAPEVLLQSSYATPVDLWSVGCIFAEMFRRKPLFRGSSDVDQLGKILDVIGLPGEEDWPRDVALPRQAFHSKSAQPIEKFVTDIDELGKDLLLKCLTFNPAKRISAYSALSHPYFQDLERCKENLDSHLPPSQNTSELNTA
Chain of CDK6/CCND1 (P24385 whole entry partner): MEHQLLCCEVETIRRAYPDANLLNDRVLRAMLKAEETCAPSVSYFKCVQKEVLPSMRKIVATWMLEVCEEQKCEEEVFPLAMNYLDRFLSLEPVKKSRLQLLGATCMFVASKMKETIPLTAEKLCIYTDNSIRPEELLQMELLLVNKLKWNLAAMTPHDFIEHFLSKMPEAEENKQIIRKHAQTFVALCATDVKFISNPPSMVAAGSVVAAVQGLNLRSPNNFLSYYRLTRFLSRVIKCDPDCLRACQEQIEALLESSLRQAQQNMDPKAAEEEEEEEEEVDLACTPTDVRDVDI
How it was run: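 Assay conditions: HEPES buffer containing 10 mM MgCl2, 1 mM EGTA, 2 mM DTT, 0.01% Tween 20; 1 nM CDK6/CCND1, 50 nM peptide substrate, 1 mM ATP. Detection after 60 min reaction used 2 nM europium antibody with 340 nm excitation. Potency fitted from half-log series, 11 points.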

[5] = <25 nM, read-out: CDK2/CCNE IC50 <25 nM
[6] = >250 nM marked x, read-out: CDK1/CCNB IC50 >250 nM
[7] = 25-250 nM marked x, read-out: CDK4/CCND IC50 25-250 nM
[8] = >250 nM marked x, read-out: CDK6/CCND IC50 >250 nM
[9] = 25-250 nM marked x, read-out: CDK1/CCNB IC50 25-250 nM
[10] = 25-250 nM marked x, read-out: CDK6/CCND IC50 25-250 nM
[11] = x = IC50 <25 nM, read-out: CDK2/CCNE IC50 (<25 nM)
[12] = x = IC50 25-250 nM, read-out: CDK1/CCNB IC50 (25-250 nM)
[13] = x = IC50 25-250 nM, read-out: CDK4/CCND IC50 (25-250 nM)
[14] = x = IC50 25-250 nM, read-out: CDK6/CCND IC50 (25-250 nM)
[15] = x = IC50 >250 nM, read-out: CDK4/CCND IC50 (>250 nM column)
[16] = x = IC50 >250 nM, read-out: CDK6/CCND IC50 (>250 nM column)
[17] = x = IC50 >250 nM, read-out: CDK1/CCNB IC50 (>250 nM column)

- pIC50 ([1]; <25 nM, read-out: CDK2/CCNE IC50, <25 nM): > 7.60
- pIC50 ([2]; >250 nM, read-out: CDK1/CCNB IC50 >250 nM): < 6.60
- pIC50 ([3]; 25-250 nM, read-out: CDK4/CCND IC50, 25-250 nM): 6.60 to 7.60
- pIC50 ([4]; 25-250 nM, 1 mM ATP, read-out: CDK6/CCND IC50, 25-250 nM): 6.60 to 7.60
SMILES: CCNS(=N)(=O)c1ccc(Nc2cc3c(-c4ccc5c(cnn5CC(O)(C(F)(F)F)C(F)(F)F)c4C)nccc3cn2)cc1 (single isomer, unassigned) [Ex 692, N-ethyl-4-((5-(4-methyl-1-(3,3,3-trifluoro-2-hydroxy-2-(trifluoromethyl)propyl)-1H-indazol-5-yl)-2,6-naphthyridin-3-yl)amino)benzenesulfonimidamide]

- pIC50 [1, 5]: > 7.60
- pIC50 [2, 6]: < 6.60
- pIC50 [3, 7]: 6.60 to 7.60
- pIC50 [4, 8]: < 6.60
SMILES: CC(C)S(=N)(=O)c1ccc(Nc2cc3c(C#Cc4cc5c(cc4N)C(C)(C)C(=O)N5)nccc3cn2)cc1 (single isomer, unassigned) [Example 270, 5-amino-3,3-dimethyl-6-((7-((4-(propan-2-ylsulfonimidoyl)phenyl)amino)-2,6-naphthyridin-1-yl)ethynyl)indolin-2-one]

- pIC50 [1, 5]: > 7.60
- pIC50 [2, 9]: 6.60 to 7.60
- pIC50 [3, 7]: 6.60 to 7.60
- pIC50 [4, 10]: 6.60 to 7.60
SMILES: CC(C)S(=N)(=O)c1ccc(Nc2cc3c(C#Cc4ccc5c(c4)NC(=O)C5(C)CCO)nccc3cn2)cc1 (single isomer, unassigned) [Example 271, 3-(2-hydroxyethyl)-3-methyl-6-((7-((4-(propan-2-ylsulfonimidoyl)phenyl)amino)-2,6-naphthyridin-1-yl)ethynyl)indolin-2-one]

- pIC50 [1, 5]: > 7.60
- pIC50 [2, 6]: < 6.60
- pIC50 [3, 7]: 6.60 to 7.60
- pIC50 [4, 8]: < 6.60
SMILES: N=S(=O)(c1ccc(Nc2cc3c(C#Cc4ccc5c(c4)NC(=O)C54CC4)nccc3cn2)c(F)c1)C1COC1 (single isomer, unassigned) [Example 275, 6′-((7-((2-fluoro-4-(oxetane-3-sulfonimidoyl)phenyl)amino)-2,6-naphthyridin-1-yl)ethynyl)spiro[cyclopropane-1,3′-indolin]-2′-one]

- pIC50 [1, 5]: > 7.60
- pIC50 [2, 9]: 6.60 to 7.60
- pIC50 [3, 7]: 6.60 to 7.60
- pIC50 [4, 10]: 6.60 to 7.60
SMILES: CC(C)S(=N)(=O)c1ccc(Nc2cc3c(C#Cc4ccc5c(c4)NC(=O)C5(C)O)nccc3cn2)cc1 (single isomer, unassigned) [Example 279, 3-hydroxy-3-methyl-6-((7-((4-(propan-2-ylsulfonimidoyl)phenyl)amino)-2,6-naphthyridin-1-yl)ethynyl)indolin-2-one]

- pIC50 [1, 5]: > 7.60
- pIC50 [2, 6]: < 6.60
- pIC50 ([3]; >250 nM marked x, read-out: CDK4/CCND IC50 >250 nM): < 6.60
- pIC50 [4, 8]: < 6.60
SMILES: COc1cc(S(=N)(=O)C2CC2)ccc1Nc1cc2c(C#Cc3ccc4c(c3)NC(=O)C43CCC3)nccc2cn1 (single isomer, unassigned) [Example 296, 6′-((7-((4-(cyclopropanesulfonimidoyl)-2-methoxyphenyl)amino)-2,6-naphthyridin-1-yl)ethynyl)spiro[cyclobutane-1,3′-indolin]-2′-one]

- pIC50 [1, 5]: > 7.60
- pIC50 [2, 6]: < 6.60
- pIC50 [3, 7]: 6.60 to 7.60
- pIC50 [4, 8]: < 6.60
SMILES: Cc1cc2c(cc1C#Cc1nccc3cnc(Nc4ccc(S(=N)(=O)C(C)C)cc4)cc13)NC(=O)C2(C)C (single isomer, unassigned) [Example 315, 3,3,5-trimethyl-6-((7-((4-(propan-2-ylsulfonimidoyl)phenyl)amino)-2,6-naphthyridin-1-yl)ethynyl)indolin-2-one]

- pIC50 [1, 5]: > 7.60
- pIC50 [2, 9]: 6.60 to 7.60
- pIC50 [3, 7]: 6.60 to 7.60
- pIC50 [4, 8]: < 6.60
SMILES: COCC1(COC)C(=O)Nc2cc(C#Cc3nccc4cnc(Nc5ccc(S(=N)(=O)C(C)C)cc5)cc34)ccc21 (single isomer, unassigned) [Example 321, 3,3-bis(methoxymethyl)-6-((7-((4-(propan-2-ylsulfonimidoyl)phenyl)amino)-2,6-naphthyridin-1-yl)ethynyl)indolin-2-one]

- pIC50 [1, 5]: > 7.60
- pIC50 [2, 9]: 6.60 to 7.60
- pIC50 [3, 7]: 6.60 to 7.60
- pIC50 [4, 8]: < 6.60
SMILES: CC(C)S(=N)(=O)c1ccc(Nc2cc3c(C#Cc4ccc5c(c4)NC(=O)C5(C)CO)nccc3cn2)cc1 (single isomer, unassigned) [Example 328, 3-(hydroxymethyl)-3-methyl-6-((7-((4-(propan-2-ylsulfonimidoyl)phenyl)amino)-2,6-naphthyridin-1-yl)ethynyl)indolin-2-one]

- pIC50 [1, 11]: > 7.60
- pIC50 [2, 12]: 6.60 to 7.60
- pIC50 [3, 13]: 6.60 to 7.60
- pIC50 [4, 14]: 6.60 to 7.60
SMILES: CC1(O)C(=O)Nc2cc(C#Cc3nccc4cnc(Nc5ccc(S(C)(=O)=O)cc5)cc34)ccc21 (single isomer, unassigned) [Example 347, 3-hydroxy-3-methyl-6-((7-((4-(methylsulfonyl)phenyl)amino)-2,6-naphthyridin-1-yl)ethynyl)indolin-2-one]

- pIC50 [1, 11]: > 7.60
- pIC50 [2, 12]: 6.60 to 7.60
- pIC50 [3, 13]: 6.60 to 7.60
- pIC50 [4, 14]: 6.60 to 7.60
SMILES: CC1(CO)C(=O)Nc2cc(C#Cc3nccc4cnc(Nc5ccc(S(C)(=O)=O)cc5)cc34)ccc21 (single isomer, unassigned) [Example 372, 3-(hydroxymethyl)-3-methyl-6-((7-((4-(methylsulfonyl)phenyl)amino)-2,6-naphthyridin-1-yl)ethynyl)indolin-2-one]

- pIC50 [1, 11]: > 7.60
- pIC50 [2, 12]: 6.60 to 7.60
- pIC50 [3, 15]: < 6.60
- pIC50 [4, 16]: < 6.60
SMILES: CCC1(C)C(=O)Nc2cc(C#Cc3nccc4cnc(Nc5ccc(S(C)(=O)=O)cc5)cc34)ccc21 (single isomer, unassigned) [Example 388, 3-ethyl-3-methyl-6-((7-((4-(methylsulfonyl)phenyl)amino)-2,6-naphthyridin-1-yl)ethynyl)indolin-2-one]

- pIC50 [1, 11]: > 7.60
- pIC50 [2, 17]: < 6.60
- pIC50 [3, 15]: < 6.60
- pIC50 [4, 16]: < 6.60
SMILES: CCS(=N)(=O)c1ccc(Nc2cc3c(C#Cc4ccc(=O)[nH]n4)nccc3cn2)cc1 (single isomer, unassigned) [Example 403, 6-((7-((4-(ethylsulfonimidoyl)phenyl)amino)-2,6-naphthyridin-1-yl)ethynyl)pyridazin-3(2H)-one]

- pIC50 [1, 11]: > 7.60
- pIC50 [2, 12]: 6.60 to 7.60
- pIC50 [3, 13]: 6.60 to 7.60
- pIC50 [4, 14]: 6.60 to 7.60
SMILES: CS(=N)(=O)c1ccc(Nc2cc3c(C#Cc4ccc5oc(=O)[nH]c5c4)nccc3cn2)cc1 (single isomer, unassigned) [Example 483, 5-((7-((4-(S-methylsulfonimidoyl)phenyl)amino)-2,6-naphthyridin-1-yl)ethynyl)benzo[d]oxazol-2(3H)-one]

- pIC50 ([1]; x = IC50 25-250 nM, read-out: CDK2/CCNE IC50 (25-250 nM)): 6.60 to 7.60
- pIC50 [2, 17]: < 6.60
- pIC50 [3, 15]: < 6.60
- pIC50 [4, 16]: < 6.60
SMILES: CS(=N)(=O)c1ccc(Nc2cc3c(C#Cc4ccc(C#N)cc4)nccc3cn2)cc1 (single isomer, unassigned) [Example 511, 4-((7-((4-(S-methylsulfonimidoyl)phenyl)amino)-2,6-naphthyridin-1-yl)ethynyl)benzonitrile]

- pIC50 [1, 11]: > 7.60
- pIC50 [2, 17]: < 6.60
- pIC50 [3, 15]: < 6.60
- pIC50 [4, 14]: 6.60 to 7.60
SMILES: Cc1c(-c2nccc3cnc(Nc4ccc(S(C)(=N)=O)cc4)cc23)ccc2nn(C)cc12 (single isomer, unassigned) [Example 545, (4-((5-(2,4-dimethyl-2H-indazol-5-yl)-2,6-naphthyridin-3-yl)amino)phenyl)(imino)(methyl)-λ^6-sulfanone]
